Measurements reported in US10807992B2, “Single enantiomer antiparasitic compounds” (priority 2017, dated 2020).

How the values were obtained:
Rhipicephalus sanguineus = assay: In vitro contact activity against adult ticks (coated vial), R. sanguineus; details: for mortality at 0.006 µM: Trial 3, dose 0.006 μM; for mortality at 0.024 µM: Trial 3, dose 0.024 μM; for mortality at 0.098 µM: Trial 3, dose 0.098 μM; for mortality at 0.39 µM: Trial 3, dose 0.39 μM; for mortality at 1.56 µM: Trial 3, dose 1.56 μM; for mortality at 6.25 µM: Trial 3, dose 6.25 μM; for mortality at 25 µM: Trial 3, dose 25 μM; for mortality at 100 µM: Trial 3, dose 100 μM
Description: Rhipicephalus sanguineus, Dermacentor variabilis, Amblyomma americanum, (Ecto Services, Inc., Henderson, N.C.) and Ixodes scapularis (Oklahoma State University, Stillwater, Okla.) aged between 2-4 weeks post molt were held in an environmental chamber at 24° C., 80% humidity with 12-hour light/dark cycles.
For tick assays, vial caps were pre-drilled with a single hole in the center of each cap to allow air exchange. A filter paper (Whatman Grade 540 2.1 cm) was placed in the lid of each vial. An aliquot from each compound stock was added to an acetone/triton solution to achieve the desired top doses for the study. Serial dilutions were conducted from the top dose (i.e. 100 ppm) to achieve the desired titration range for EC50 and EC90 determination. For R. sanguineus, D. variabilis, and A. americanum, the final DMSO concentration in each test vial was 0.5%. For I. scapularis, compounds were solubilized directly in an acetone/triton solution due to I. scapularis' sensitivity to DMSO. A 459 μL aliquot of each compound formulation was transferred to a vial containing a Whatman Grade 540 2.1 cm filter paper. Vials were immediately placed on an unheated roller unit to allow for an even coating of the vial walls. After vials were coated, 41 μL of each compound formulation was added to the filter paper embedded in each vial cap. Each cap was allowed to dry. The vials were loosely capped and allowed to dry for a minimum of four hours in a chemical fume hood.
Compounds tested were: the C1 racemate, C1 (R) enantiomer, and the C1 (S) enantiomer. For Trial 3, the C1 (R) enantiomer and the C1 (S) enantiomer were further chiral purified to achieve >99% purity.
Ten adult ticks were added to each vial and held at 24° C., 80% humidity with 12-hour light/dark cycles. Adult ticks were assessed for percent mortality at various time points between 2 hours and 48 hours post infestation. Ticks were stimulated on a heated roller unit and evaluated. Ticks showing no movement, or very slow and uncoordinated movement were noted as dead.

Ctenocephalides felis = assay: In vitro ingestion activity against fleas (artificial feeding, bovine blood); details: for mortality at 0.003 ppm: Trial 3, dose 0.003 ppm; for mortality at 0.012 ppm: Trial 3, dose 0.012 ppm; for mortality at 0.049 ppm: Trial 3, dose 0.049 ppm; for mortality at 0.2 ppm: Trial 3, dose 0.20 ppm; for mortality at 0.78 ppm: Trial 3, dose 0.78 ppm; for mortality at 3.125 ppm: Trial 3, dose 3.125 ppm; for mortality at 12.5 ppm: Trial 3, dose 12.5 ppm; for mortality at 50 ppm: Trial 3, dose 50 ppm
Description: Ctenocephalides felis (Avista Pharma, Inc., RTP, NC), 1-7days post hatch, held in an environmental chamber at 24° C., 85% humidity.
For flea ingestion tests, serial dilutions of the compound stock were performed using DMSO to achieve the desired range for EC50 and EC90 determination. An aliquot of each compound dilution was added to organic bovine blood with a final DMSO concentration of 0.5% and placed in an artificial feeding container.
Compounds tested were C1 racemate, the C1 (R) enantiomer, and the C1 (S) enantiomer. For Trial 3, the C1 (R) enantiomer and the C1 (S) enantiomer were further chiral purified to achieve >99% purity.
For both contact and ingestion assays, ten newly emerged unfed adult fleas, 0-7 days old Ctenocephalides felis, from a laboratory colony, were aspirated into each vial or cage. The test vials for contact assays were held in an environmental chamber at 24° C., 80% humidity with light/dark cycles (12 hours each). The cages for flea ingestion assays were held in a temperature-controlled artificial feeding apparatus to allow continual access to organic bovine blood containing the desired concentration of compound. Fresh aliquots of compound-spiked bovine blood were provided daily for the duration of the study.
Fleas were evaluated for percent mortality at various time points between 2 hours and 48 hours post infestation. Fleas showing normal movement and/or jumping ability were considered viable and those showing no movement after tapping the vials were scored as dead.

O=C(CC(F)(F)F)N1CC2(C1)OCc1cc(C3=NS[C@](c4cc(Cl)c(F)c(Cl)c4)(C(F)(F)F)C3)ccc12 [C1 (R) enantiomer, (R)-1-[6-[5-(3,5-dichloro-4-fluoro-phenyl)-5-(trifluoromethyl)-4H-isothiazol-3-yl]spiro[1H-isobenzofuran-3,3′-azetidine]-1′-yl]-3,3,3-trifluoro-propan-1-one]
90%: mortality at 12.5 ppm (Ctenocephalides felis; 48 h, Rep1)
60%: mortality at 12.5 ppm (Ctenocephalides felis; 48 h, Rep2)
0%: mortality at 0.006 µM (Rhipicephalus sanguineus; 2 h, Rep1) | mortality at 0.006 µM (Rhipicephalus sanguineus; 2 h, Rep2) | mortality at 0.024 µM (Rhipicephalus sanguineus; 2 h, Rep1) | mortality at 0.024 µM (Rhipicephalus sanguineus; 2 h, Rep2) | mortality at 0.098 µM (Rhipicephalus sanguineus; 2 h, Rep1) | mortality at 0.098 µM (Rhipicephalus sanguineus; 2 h, Rep2) | mortality at 0.39 µM (Rhipicephalus sanguineus; 2 h, Rep1) | mortality at 0.39 µM (Rhipicephalus sanguineus; 2 h, Rep2) | mortality at 1.56 µM (Rhipicephalus sanguineus; 2 h, Rep1) | mortality at 1.56 µM (Rhipicephalus sanguineus; 2 h, Rep2) | mortality at 6.25 µM (Rhipicephalus sanguineus; 2 h, Rep1) | mortality at 6.25 µM (Rhipicephalus sanguineus; 2 h, Rep2) | mortality at 25 µM (Rhipicephalus sanguineus; 2 h, Rep1) | mortality at 25 µM (Rhipicephalus sanguineus; 2 h, Rep2) | mortality at 100 µM (Rhipicephalus sanguineus; 2 h, Rep1) | mortality at 100 µM (Rhipicephalus sanguineus; 2 h, Rep2) | mortality at 0.006 µM (Rhipicephalus sanguineus; 6 h, Rep1) | mortality at 0.006 µM (Rhipicephalus sanguineus; 6 h, Rep2) | mortality at 0.024 µM (Rhipicephalus sanguineus; 6 h, Rep1) | mortality at 0.024 µM (Rhipicephalus sanguineus; 6 h, Rep2) | mortality at 0.098 µM (Rhipicephalus sanguineus; 6 h, Rep1) | mortality at 0.098 µM (Rhipicephalus sanguineus; 6 h, Rep2) | mortality at 0.39 µM (Rhipicephalus sanguineus; 6 h, Rep1) | mortality at 0.39 µM (Rhipicephalus sanguineus; 6 h, Rep2) | mortality at 1.56 µM (Rhipicephalus sanguineus; 6 h, Rep1) | mortality at 1.56 µM (Rhipicephalus sanguineus; 6 h, Rep2) | mortality at 6.25 µM (Rhipicephalus sanguineus; 6 h, Rep1) | mortality at 6.25 µM (Rhipicephalus sanguineus; 6 h, Rep2) | mortality at 25 µM (Rhipicephalus sanguineus; 6 h, Rep1) | mortality at 25 µM (Rhipicephalus sanguineus; 6 h, Rep2) | mortality at 100 µM (Rhipicephalus sanguineus; 6 h, Rep1) | mortality at 100 µM (Rhipicephalus sanguineus; 6 h, Rep2) | mortality at 0.006 µM (Rhipicephalus sanguineus; 12 h, Rep1) | mortality at 0.006 µM (Rhipicephalus sanguineus; 12 h, Rep2) | mortality at 0.024 µM (Rhipicephalus sanguineus; 12 h, Rep1) | mortality at 0.024 µM (Rhipicephalus sanguineus; 12 h, Rep2) | mortality at 0.098 µM (Rhipicephalus sanguineus; 12 h, Rep1) | mortality at 0.098 µM (Rhipicephalus sanguineus; 12 h, Rep2) | mortality at 0.39 µM (Rhipicephalus sanguineus; 12 h, Rep1) | mortality at 0.39 µM (Rhipicephalus sanguineus; 12 h, Rep2) | mortality at 1.56 µM (Rhipicephalus sanguineus; 12 h, Rep1) | mortality at 1.56 µM (Rhipicephalus sanguineus; 12 h, Rep2) | mortality at 6.25 µM (Rhipicephalus sanguineus; 12 h, Rep1) | mortality at 6.25 µM (Rhipicephalus sanguineus; 12 h, Rep2) | mortality at 25 µM (Rhipicephalus sanguineus; 12 h, Rep1) | mortality at 25 µM (Rhipicephalus sanguineus; 12 h, Rep2) | mortality at 100 µM (Rhipicephalus sanguineus; 12 h, Rep1) | mortality at 100 µM (Rhipicephalus sanguineus; 12 h, Rep2) | mortality at 0.003 ppm (Ctenocephalides felis; 6 h, Rep1) | mortality at 0.003 ppm (Ctenocephalides felis; 6 h, Rep2) | mortality at 0.012 ppm (Ctenocephalides felis; 6 h, Rep1) | mortality at 0.012 ppm (Ctenocephalides felis; 6 h, Rep2) | mortality at 0.049 ppm (Ctenocephalides felis; 6 h, Rep1) | mortality at 0.049 ppm (Ctenocephalides felis; 6 h, Rep2) | mortality at 0.2 ppm (Ctenocephalides felis; 6 h, Rep1) | mortality at 0.2 ppm (Ctenocephalides felis; 6 h, Rep2) | mortality at 0.78 ppm (Ctenocephalides felis; 6 h, Rep1) | mortality at 0.78 ppm (Ctenocephalides felis; 6 h, Rep2) | mortality at 3.125 ppm (Ctenocephalides felis; 6 h, Rep1) | mortality at 0.003 ppm (Ctenocephalides felis; 24 h, Rep1) | mortality at 0.003 ppm (Ctenocephalides felis; 24 h, Rep2) | mortality at 0.012 ppm (Ctenocephalides felis; 24 h, Rep1) | mortality at 0.012 ppm (Ctenocephalides felis; 24 h, Rep2) | mortality at 0.049 ppm (Ctenocephalides felis; 24 h, Rep1) | mortality at 0.049 ppm (Ctenocephalides felis; 24 h, Rep2) | mortality at 0.2 ppm (Ctenocephalides felis; 24 h, Rep1) | mortality at 0.2 ppm (Ctenocephalides felis; 24 h, Rep2) | mortality at 0.78 ppm (Ctenocephalides felis; 24 h, Rep1) | mortality at 0.78 ppm (Ctenocephalides felis; 24 h, Rep2) | mortality at 3.125 ppm (Ctenocephalides felis; 24 h, Rep1) | mortality at 3.125 ppm (Ctenocephalides felis; 24 h, Rep2) | mortality at 0.003 ppm (Ctenocephalides felis; 48 h, Rep1) | mortality at 0.003 ppm (Ctenocephalides felis; 48 h, Rep2) | mortality at 0.012 ppm (Ctenocephalides felis; 48 h, Rep1) | mortality at 0.012 ppm (Ctenocephalides felis; 48 h, Rep2) | mortality at 0.049 ppm (Ctenocephalides felis; 48 h, Rep1) | mortality at 0.049 ppm (Ctenocephalides felis; 48 h, Rep2) | mortality at 0.2 ppm (Ctenocephalides felis; 48 h, Rep1) | mortality at 0.2 ppm (Ctenocephalides felis; 48 h, Rep2) | mortality at 0.78 ppm (Ctenocephalides felis; 48 h, Rep1) | mortality at 0.78 ppm (Ctenocephalides felis; 48 h, Rep2) | mortality at 3.125 ppm (Ctenocephalides felis; 48 h, Rep1) | mortality at 3.125 ppm (Ctenocephalides felis; 48 h, Rep2)
100%: mortality at 50 ppm (Ctenocephalides felis; 6 h, Rep1) | mortality at 50 ppm (Ctenocephalides felis; 6 h, Rep2) | mortality at 50 ppm (Ctenocephalides felis; 24 h, Rep1) | mortality at 50 ppm (Ctenocephalides felis; 24 h, Rep2) | mortality at 50 ppm (Ctenocephalides felis; 48 h, Rep1) | mortality at 50 ppm (Ctenocephalides felis; 48 h, Rep2)
40%: mortality at 12.5 ppm (Ctenocephalides felis; 6 h, Rep2) | mortality at 12.5 ppm (Ctenocephalides felis; 24 h, Rep2)
20%: mortality at 3.125 ppm (Ctenocephalides felis; 6 h, Rep2)
80%: mortality at 12.5 ppm (Ctenocephalides felis; 6 h, Rep1) | mortality at 12.5 ppm (Ctenocephalides felis; 24 h, Rep1)
